Reference: publication PMC8342458, “GluN2A and GluN2B NMDA receptors use distinct allosteric routes” (Nature Communications, 2021)
Several values for one entry are separate records, joined by “and”; a condition that tells them apart may be missing. Equal values may be shown once. Read-outs that look alike come from different tables or passages of the source.

Columns and labels:
[1] = molecular target: T1, GluN1/GluN2A-V217C receptors (Rattus norvegicus, UniProt P35439+Q00959, V217C); test: TEVC recordings in Xenopus oocytes, zinc inhibition dose-response; assay type: cell-based
T1 construct: For full-length multimeric membrane-embedded receptors studied in cellulo, as done in the present work; expressed in transfected cells; host or cells: Xenopus laevis oocytes
T1 sequence (Q00959 23-1464 V217C, other chains not shown): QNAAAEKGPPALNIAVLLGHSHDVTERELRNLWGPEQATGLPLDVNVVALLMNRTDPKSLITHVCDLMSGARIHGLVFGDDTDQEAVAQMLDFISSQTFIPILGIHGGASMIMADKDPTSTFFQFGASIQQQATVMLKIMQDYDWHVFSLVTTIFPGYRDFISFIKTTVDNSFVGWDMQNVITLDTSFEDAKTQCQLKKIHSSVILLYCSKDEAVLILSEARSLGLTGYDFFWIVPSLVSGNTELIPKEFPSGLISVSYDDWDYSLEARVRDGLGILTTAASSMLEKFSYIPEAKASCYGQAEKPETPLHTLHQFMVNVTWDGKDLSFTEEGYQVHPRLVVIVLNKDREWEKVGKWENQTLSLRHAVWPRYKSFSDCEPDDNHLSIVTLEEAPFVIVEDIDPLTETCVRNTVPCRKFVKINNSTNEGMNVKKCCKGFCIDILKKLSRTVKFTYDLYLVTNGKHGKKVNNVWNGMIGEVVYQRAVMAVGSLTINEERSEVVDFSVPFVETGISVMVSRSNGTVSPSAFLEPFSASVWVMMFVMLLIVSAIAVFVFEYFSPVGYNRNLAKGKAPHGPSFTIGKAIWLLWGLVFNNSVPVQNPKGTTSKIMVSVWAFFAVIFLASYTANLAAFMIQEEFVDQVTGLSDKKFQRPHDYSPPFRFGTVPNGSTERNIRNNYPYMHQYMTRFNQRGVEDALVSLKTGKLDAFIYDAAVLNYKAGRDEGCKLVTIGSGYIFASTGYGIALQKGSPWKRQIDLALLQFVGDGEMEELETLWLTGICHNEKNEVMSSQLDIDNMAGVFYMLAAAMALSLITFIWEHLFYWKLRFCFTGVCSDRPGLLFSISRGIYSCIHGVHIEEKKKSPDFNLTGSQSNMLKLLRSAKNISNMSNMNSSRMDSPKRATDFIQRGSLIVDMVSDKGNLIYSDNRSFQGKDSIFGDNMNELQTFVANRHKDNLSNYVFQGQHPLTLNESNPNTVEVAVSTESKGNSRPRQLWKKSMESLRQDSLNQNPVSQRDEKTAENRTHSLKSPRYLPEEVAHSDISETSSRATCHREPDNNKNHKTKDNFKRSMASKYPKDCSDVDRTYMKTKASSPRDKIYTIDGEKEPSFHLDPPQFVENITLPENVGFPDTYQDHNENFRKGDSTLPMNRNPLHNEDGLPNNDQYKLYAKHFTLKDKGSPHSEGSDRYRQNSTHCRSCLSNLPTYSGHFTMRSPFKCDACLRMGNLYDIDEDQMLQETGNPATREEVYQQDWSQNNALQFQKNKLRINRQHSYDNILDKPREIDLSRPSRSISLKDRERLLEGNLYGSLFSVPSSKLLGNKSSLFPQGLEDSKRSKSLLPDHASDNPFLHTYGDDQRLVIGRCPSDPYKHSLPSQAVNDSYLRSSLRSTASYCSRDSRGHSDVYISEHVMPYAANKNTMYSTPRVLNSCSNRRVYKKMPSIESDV
Experimental: (§1) The pcDNA3-based expression plasmids for rat GluN1-1a (named GluN1 herein), rat GluN2A, and mouse GluN2B (also known as ε2) subunits, Pfu-based site-directed mutagenesis strategy, and sequencing procedure have been described previously[68],[69]. Incorporation of the unnatural amino acids (UAAs) AzF and BzF into NMDARs was performed using the genetic code expansion methodology as previously described[52],[53],[83]. The plasmid pSVB.Yam carrying the gene encoding the amber suppressor tRNA derived from B. stearothermophilus Tyr-tRNACUA, while the aminoacyl-tRNA synthetases (aaRS) construction for AzF and BzF derived from E. coli TyrRS[84],[85].
(§2) Recombinant NMDARs were expressed in Xenopus laevis oocytes after nuclear injection of 36 nl of a mixture of cDNAs (at 10–30 ng/μl) encoding various GluN1 and GluN2 subunits (ratio 1:1). Oocytes were prepared, injected, incubated, and voltage-clamped as described previously. For UAA incorporation, oocytes were co-injected with 36 nl of a cDNA mixture encoding for of GluN1, GluN2, Yam, and aaRS as follows, unless otherwise indicated in the text: GluN1-K178amber (120 ng/μl), GluN2A (80 ng/µl) or GluN2B (120 ng/μl), Yam (10 ng/μl), AzF-RS (5 ng/μl). After injection, oocytes were incubated at 19 °C in a Barth solution containing (in mM) 88 NaCl, 1 KCl, 0.33 Ca(NO3)2, 0.41 CaCl2, 0.82 MgSO4, 2.4 NaHCO3, 10 HEPES (pH adjusted to 7.6 with NaOH) supplemented with gentamicin ([…]) and the NMDAR glutamate binding site competitive antagonist D-APV (50 μM). AzF and BzF were added to the incubation medium at final concentrations of 1 mM and 2 mM, respectively.
(§3) For all experiments, except those on pH and spermine sensitivity, the standard external solution contained (in mM): 100 NaCl, 0.3 BaCl2, and 5 HEPES (pH adjusted to 7.3 with KOH). […] For the pH and spermine sensitivity experiments, an external solution enriched in HEPES was used to insure proper pH buffering. Unless otherwise mentioned, NMDAR-mediated currents were induced by simultaneously applications of saturating concentrations of glutamate and glycine (100 μM each). Glutamate and glycine dose-response curves (DRC) were performed in the presence of 100 µM glycine and 100 µM glutamate, respectively. Recordings were performed at a holding potential of −60 mV and at room temperature. Data were collected and analyzed using Clampex 10.5 and Clampfit 10.5 (Molecular Devices), respectively, and fitted using KaleidaGraph 4.0 (Synergy software).
(§4) EC50 and nH were fitted as free parameters. […] For proton DRC, corrections for small shifts in the reference potential of bath electrodes and analysis of the data were performed as previously described. Spermine experiments were performed and analyzed as previously described. In brief, spermine sensitivity was assessed at pH 6.5 and at a holding potential of −30 mV to maximize the spermine induced potentiation. […] EC50, a and nH were set as free parameters. MK-801 is an NMDAR open channel blocker with slow reversibility and, consequently, the rate at which MK-801 inhibits NMDAR responses depends on the level of channel activity, that is, channel open probability (Po). Based on this principle, MK-801 is classically used to estimate the level of NMDAR channel activity in macroscopic whole-cell recordings[36],[47],[56],[86],[87]. Note, however, that MK- 801 inhibition kinetics can index relative, not absolute, Po. MK-801 solutions (10 nM for GluN2A-containing receptors and 50 nM for GluN2B-containing receptors) were prepared by dilution of a stock solution (50 mM) into the agonist containing solutions. MK-801 time constants of inhibition (τon) were obtained by fitting currents with a single-exponential component to a time window corresponding to 10–90% of maximum inhibition. On-rate (kon) constants were then calculated assuming a pseudo first-order reaction scheme: kon = 1 / ([MK-801]*τon).

[2] = molecular target: T2, wild-type (wt) GluN1/GluN2A receptors (Rattus norvegicus, UniProt P35439+Q00959); test: TEVC recordings in Xenopus oocytes, allosteric modulator sensitivity; assay type: cell-based; details: for Izn/Io 1 nM: 1 nM zinc; for Izn/Io 10 nM: 10 nM zinc; for Izn/Io 50 nM: 50 nM zinc; for Izn/Io 500 nM: 500 nM zinc; for Izn/Io 1000 nM: 1000 nM zinc
T2 construct: For full-length multimeric membrane-embedded receptors studied in cellulo, as done in the present work; expressed in transfected cells; host or cells: Xenopus laevis oocytes (nuclear cDNA injection, pcDNA3 plasmids)
T2 sequence (Q00959 23-1464, other chains not shown): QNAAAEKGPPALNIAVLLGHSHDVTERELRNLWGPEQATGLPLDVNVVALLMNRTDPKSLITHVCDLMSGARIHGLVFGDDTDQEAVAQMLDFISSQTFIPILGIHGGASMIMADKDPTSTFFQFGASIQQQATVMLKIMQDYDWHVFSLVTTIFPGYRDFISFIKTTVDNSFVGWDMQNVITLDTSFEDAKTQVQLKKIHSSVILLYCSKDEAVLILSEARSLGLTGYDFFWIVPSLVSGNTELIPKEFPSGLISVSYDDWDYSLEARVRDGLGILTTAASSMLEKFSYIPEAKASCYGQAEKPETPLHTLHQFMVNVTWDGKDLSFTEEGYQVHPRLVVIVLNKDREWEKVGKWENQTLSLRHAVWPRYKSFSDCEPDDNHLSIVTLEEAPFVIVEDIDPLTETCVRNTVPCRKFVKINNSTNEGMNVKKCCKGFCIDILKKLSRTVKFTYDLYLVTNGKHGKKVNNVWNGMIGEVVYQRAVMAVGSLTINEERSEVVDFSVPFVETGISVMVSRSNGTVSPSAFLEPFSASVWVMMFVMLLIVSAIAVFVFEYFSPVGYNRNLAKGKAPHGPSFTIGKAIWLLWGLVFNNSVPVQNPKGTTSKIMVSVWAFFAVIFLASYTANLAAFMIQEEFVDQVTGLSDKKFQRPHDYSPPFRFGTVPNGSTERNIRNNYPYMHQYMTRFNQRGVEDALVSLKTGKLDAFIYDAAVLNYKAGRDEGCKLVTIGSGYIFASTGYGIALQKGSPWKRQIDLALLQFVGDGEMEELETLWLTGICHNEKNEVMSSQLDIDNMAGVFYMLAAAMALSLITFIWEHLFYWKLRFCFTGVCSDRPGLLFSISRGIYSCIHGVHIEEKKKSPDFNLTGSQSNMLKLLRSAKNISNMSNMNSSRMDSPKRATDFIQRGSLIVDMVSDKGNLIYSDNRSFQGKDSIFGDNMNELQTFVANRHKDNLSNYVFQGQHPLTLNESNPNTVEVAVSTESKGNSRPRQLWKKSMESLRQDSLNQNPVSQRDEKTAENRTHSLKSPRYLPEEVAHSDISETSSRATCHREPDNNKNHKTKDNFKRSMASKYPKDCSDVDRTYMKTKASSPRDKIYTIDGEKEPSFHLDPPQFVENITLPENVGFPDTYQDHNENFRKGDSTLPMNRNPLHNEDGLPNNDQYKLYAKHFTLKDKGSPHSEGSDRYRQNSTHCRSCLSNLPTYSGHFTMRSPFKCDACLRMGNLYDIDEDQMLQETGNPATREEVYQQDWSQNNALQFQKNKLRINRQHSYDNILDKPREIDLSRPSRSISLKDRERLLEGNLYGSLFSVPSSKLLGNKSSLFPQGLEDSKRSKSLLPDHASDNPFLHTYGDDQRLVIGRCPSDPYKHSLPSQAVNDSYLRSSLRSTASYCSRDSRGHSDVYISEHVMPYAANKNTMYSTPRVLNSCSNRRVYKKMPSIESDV
Experimental: as §1, §2, §3, §4

[3] = molecular target: T3, GluN1/GluN2B-N218C receptors (UniProt P35439+Q01097, N218C); test: TEVC recordings in Xenopus oocytes, zinc and ifenprodil inhibition dose-response; assay type: cell-based, rat (GluN1), mouse (GluN2B)
T3 construct: For full-length multimeric membrane-embedded receptors studied in cellulo, as done in the present work; expressed in transfected cells; host or cells: Xenopus laevis oocytes
Experimental: as §1, §2, §3, §4

[4] = molecular target: T4, GluN1-L777C/GluN2B-E517C-L781C receptors (UniProt P35439+Q01097, E517C/L777C/L781C/N521C); test: as above; assay type: cell-based, rat (GluN1), mouse (GluN2B); details: read-out: Zn2+ IC50
T4 construct: For full-length multimeric membrane-embedded receptors studied in cellulo, as done in the present work; expressed in transfected cells; host or cells: Xenopus laevis oocytes
Experimental: as §1, §2, §3, §4

[5] = molecular target: T5, GluN1-N512C-L777C/GluN2B-E517C-L781C receptors (UniProt P35439+Q01097, E517C/L777C/L781C/N521C); test: as above; assay type: cell-based, rat (GluN1), mouse (GluN2B)
T5 construct: For full-length multimeric membrane-embedded receptors studied in cellulo, as done in the present work; expressed in transfected cells; host or cells: Xenopus laevis oocytes
T5 sequence (Q01097 27-1482 E517C/L781C, other chains not shown): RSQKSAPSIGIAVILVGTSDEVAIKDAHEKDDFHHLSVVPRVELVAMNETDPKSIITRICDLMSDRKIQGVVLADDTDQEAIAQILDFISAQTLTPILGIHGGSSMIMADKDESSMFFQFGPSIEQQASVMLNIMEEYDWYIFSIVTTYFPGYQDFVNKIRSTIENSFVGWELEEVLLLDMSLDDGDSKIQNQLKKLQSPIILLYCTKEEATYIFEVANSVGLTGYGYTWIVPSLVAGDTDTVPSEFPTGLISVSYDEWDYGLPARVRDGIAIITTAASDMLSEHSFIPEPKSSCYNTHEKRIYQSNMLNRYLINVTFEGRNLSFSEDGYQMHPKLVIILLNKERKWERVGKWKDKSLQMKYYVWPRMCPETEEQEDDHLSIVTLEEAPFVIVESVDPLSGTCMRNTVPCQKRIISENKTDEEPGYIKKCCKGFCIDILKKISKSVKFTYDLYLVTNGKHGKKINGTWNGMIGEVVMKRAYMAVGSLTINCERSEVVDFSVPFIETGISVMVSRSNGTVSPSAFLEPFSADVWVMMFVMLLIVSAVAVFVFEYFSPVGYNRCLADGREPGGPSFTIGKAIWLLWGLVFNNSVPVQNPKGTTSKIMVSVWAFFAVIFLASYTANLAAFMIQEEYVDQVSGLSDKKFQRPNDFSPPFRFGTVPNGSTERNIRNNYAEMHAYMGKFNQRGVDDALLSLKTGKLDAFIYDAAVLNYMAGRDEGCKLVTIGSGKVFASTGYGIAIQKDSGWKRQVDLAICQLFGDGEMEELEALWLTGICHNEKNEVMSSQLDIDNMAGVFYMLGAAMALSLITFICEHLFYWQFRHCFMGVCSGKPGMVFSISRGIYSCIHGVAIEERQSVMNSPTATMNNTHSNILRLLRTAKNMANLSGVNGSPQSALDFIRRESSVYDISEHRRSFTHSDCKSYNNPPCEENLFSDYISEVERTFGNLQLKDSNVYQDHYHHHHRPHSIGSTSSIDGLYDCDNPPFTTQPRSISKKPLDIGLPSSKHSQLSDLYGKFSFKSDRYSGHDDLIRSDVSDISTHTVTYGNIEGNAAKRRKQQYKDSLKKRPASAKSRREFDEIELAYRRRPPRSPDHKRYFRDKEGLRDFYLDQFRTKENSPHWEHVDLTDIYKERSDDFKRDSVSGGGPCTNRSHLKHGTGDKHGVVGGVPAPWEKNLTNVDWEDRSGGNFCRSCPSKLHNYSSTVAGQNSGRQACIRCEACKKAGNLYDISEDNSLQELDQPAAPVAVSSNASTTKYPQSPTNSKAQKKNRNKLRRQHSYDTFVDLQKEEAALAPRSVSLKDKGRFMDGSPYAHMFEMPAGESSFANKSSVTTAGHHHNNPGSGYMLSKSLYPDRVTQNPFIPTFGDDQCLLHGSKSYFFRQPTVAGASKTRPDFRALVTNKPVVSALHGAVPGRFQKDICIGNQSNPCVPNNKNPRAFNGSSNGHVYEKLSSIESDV
Experimental: as §1, §2, §3, §4

For `[Zn+2]` [zinc], the “Zn2+ Hill slope (nH)” value [1] was 0.44 ± 0.08, the “maximal level of zinc inhibition” value [1] was 40% and the “Izn/Io 1 nM” value ([1]; 1 nM zinc) was 0.86 ± 0.03. The “Izn/Io 10 nM” value ([1]; 10 nM zinc) was 0.78 ± 0.03, the “Izn/Io 50 nM” value ([1]; 50 nM zinc) was 0.70 ± 0.03 and the “Izn/Io 500 nM” value ([1]; 500 nM zinc) was 0.65 ± 0.03. The “Izn/Io 1000 nM” value ([1]; 1000 nM zinc) was 0.64 ± 0.04, the IC50 ([1]; read-out: Zn2+ IC50) was 4.64 ± 1.78 nM and the “Zn2+ Hill slope (nH)” value [2] was 0.64 ± 0.10 and 0.70 ± 0.03 and 0.77 ± 0.05. For the same compound, the “Izn/Io 1 nM” value [2] was 0.90 ± 0.01 and 0.90 ± 0.05 and 0.86 ± 0.08, the “Izn/Io 1 nM” value ([2]; +GNE (100 µM GNE-3419)) was 0.97 ± 0.02 and the “Izn/Io 10 nM” value [2] was 0.68 ± 0.01 and 0.68 ± 0.04 and 0.68 ± 0.07. For the same compound, the “Izn/Io 10 nM” value ([2]; +GNE (100 µM GNE-3419)) was 0.88 ± 0.05, the “Izn/Io 50 nM” value [2] was 0.45 ± 0.02 and 0.45 ± 0.05 and the “Izn/Io 50 nM” value ([2]; +GNE (100 µM GNE-3419)) was 0.76 ± 0.08. For the same compound, the “Izn/Io 500 nM” value [2] was 0.31 ± 0.02 and 0.33 ± 0.04, the “Izn/Io 500 nM” value ([2]; +GNE (100 µM GNE-3419)) was 0.65 ± 0.07 and the “Izn/Io 1000 nM” value [2] was 0.30 ± 0.06 and 0.28 ± 0.04 and 0.30 ± 0.03. For the same compound, the “Izn/Io 1000 nM” value ([2]; +GNE (100 µM GNE-3419)) was 0.58 ± 0.02, the “Zn2+ maximal inhibition” value ([2]; fraction) was 0.74 ± 0.05 and the “Zn2+ Hill slope (nH)” value ([2]; in the presence of 100 µM GNE-3419) was 0.62 ± 0.17. The IC50 ([2]; read-out: Zn2+ IC50) was 12 nM and 15.3 nM and 13 nM, the “Zn2+ Hill slope (nH)” value [3] was 1.01 ± 0.01 and the “Izn/Io 0.1 μM” value ([3]; 0.1 μM zinc) was 0.95 ± 0.07. The “Izn/Io 1 μM” value ([3]; 1 μM zinc) was 0.72 ± 0.08, the “Izn/Io 10 μM” value ([3]; 10 μM zinc) was 0.22 ± 0.07 and the IC50 ([3]; read-out: Zn2+ IC50) was 3060 ± 40 nM. For the same compound, the IC50 [4] was 720 ± 50 nM, the “Zn2+ Hill slope (nH)” value [5] was 0.88 ± 0.05 and the “Izn/Io 0.1 μM” value ([5]; 0.1 μM zinc) was 0.78 ± 0.07. The “Izn/Io 0.3 μM” value ([5]; 0.3 μM zinc) was 0.60 ± 0.03, the “Izn/Io 1 μM” value ([5]; 1 μM zinc) was 0.40 ± 0.03 and the “Izn/Io 3 μM” value ([5]; 3 μM zinc) was 0.23 ± 0.03. The “Izn/Io 10 μM” value ([5]; 10 μM zinc) was 0.10 ± 0.03.
